Assay results published in paper PMC12388126, “Photochemically Assisted Synthesis of Thienobenzotriazole-Based Dual Cholinesterase Inhibitors” (Molecules, 2025).
Where two headings read alike, the source gives them in different places.

Experiments:
[1] = molecular target: acetylcholinesterase (AChE) (Electrophorus electricus, UniProt O42275); assay: AChE inhibition, modified Ellman method; type: biochemical; settings: for inhibition at 50 µM / inhibition at 100 µM / inhibition at 250 µM: read-out: AChE Inhibition (%); for IC50: relative IC50 from nonlinear regression, tested 0.01–250 μM
Chain of acetylcholinesterase (AChE) (O42275 24-633): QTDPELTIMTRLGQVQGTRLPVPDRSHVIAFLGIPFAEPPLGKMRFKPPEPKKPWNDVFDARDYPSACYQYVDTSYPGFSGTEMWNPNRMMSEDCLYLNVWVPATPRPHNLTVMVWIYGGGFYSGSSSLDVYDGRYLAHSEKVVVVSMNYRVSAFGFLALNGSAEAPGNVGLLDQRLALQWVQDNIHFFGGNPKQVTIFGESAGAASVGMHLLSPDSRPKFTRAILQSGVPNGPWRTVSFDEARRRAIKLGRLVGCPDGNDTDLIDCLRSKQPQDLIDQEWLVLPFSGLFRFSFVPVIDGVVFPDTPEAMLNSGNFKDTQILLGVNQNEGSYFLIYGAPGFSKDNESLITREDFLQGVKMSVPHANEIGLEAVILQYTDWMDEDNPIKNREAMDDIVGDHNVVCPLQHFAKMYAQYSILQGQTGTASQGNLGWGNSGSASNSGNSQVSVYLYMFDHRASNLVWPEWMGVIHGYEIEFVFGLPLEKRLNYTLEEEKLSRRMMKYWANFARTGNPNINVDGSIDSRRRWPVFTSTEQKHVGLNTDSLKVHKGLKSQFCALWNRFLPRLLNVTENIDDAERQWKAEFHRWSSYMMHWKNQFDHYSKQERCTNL
Experimental: (§1) Building on the previously promising in vitro results of thienobenzo-1,2,3-triazolinium salts against cholinesterases, research was extended to a series of structurally related bromide salts. The inhibitory effects of a new set of triazolinium salts (1–4, 7–11, 14–17) on the activities of acetylcholinesterase (AChE) and butyrylcholinesterase (BChE) are summarized in Table 1. Their inhibitory activity was assessed using a modified Ellman method over a wide concentration range (0.01–250 μM). The IC50 values listed in Table 1 are relative IC50 values, obtained directly from the nonlinear regression analysis of the inhibition curves under defined test conditions. For reference, the inhibitory effect at the highest tested concentration is also reported. The results were compared with galantamine, a well-known cholinesterase inhibitor used in the treatment of Alzheimer’s disease.
(§2) The inhibitory effects of the new synthesized thiabenzo-1,2,3-triazolinium bromide salts, 1–4, 7–11, and 14–17, on acetylcholinesterase (AChE) and butyrylcholinesterase (BChE) activity were evaluated using the modified Ellman’s method.
(§3) DTNB, ATChI, and BTChI were prepared in 50 mM Tris buffer (pH 8.0), while the enzymes were made in 20 mM Tris buffer (pH 7.5). Using a 96-well microplate reader (Agilent, BioTek 800TS, Santa Clara, CA, USA), cholinesterase activity was assessed. Amounts of 180 μL of 50 mM Tris buffer, 10 μL of tested solutions with final concentrations ranging from 0.01 to 250 μM, and 10 μL of an enzyme with a final concentration of 0.03 U/mL were added to the microplate well, which was then left to incubate for 15 min at room temperature. Following incubation, 10 μL of DTNB (final concentration: 0.3 mM) and […] of ATChI/BTChI (final concentration: 0.5 mM) were added to the reaction mixture. After four minutes, the absorbance was measured at 405 nm. Non-enzymatic hydrolysis was assessed as a blank for the control measurement in the absence of inhibitors and enzymes. The samples were tested using the non-enzymatic hydrolysis procedure with an additional inhibitor as a blank. The enzyme was swapped out for the same amount of buffer.
(§4) The inhibition % was determined using the following formula: Inhibition (%) = [(AC − AT)/AC] × 100, where AC is the activity of the enzyme without a test sample and AT is the activity of the enzyme with a test sample. The mean values ± standard deviation are used to illustrate the results. Inhibitory activity of ethanol was deducted from each sample. A nonlinear fit of compound concentration values vs. response was used to determine the IC50 values. Each trazolinium salt was tested against both enzymes in triplicate.

[2] = molecular target: T1, butyrylcholinesterase (BChE) (Equus caballus, UniProt P81908); assay: BChE inhibition, modified Ellman method; type: biochemical
T1 construct: BChE (extracted from equine serum); purchased Sigma-Aldrich; host or cells: equine serum (natural source)
T1 sequence (P81908 whole entry): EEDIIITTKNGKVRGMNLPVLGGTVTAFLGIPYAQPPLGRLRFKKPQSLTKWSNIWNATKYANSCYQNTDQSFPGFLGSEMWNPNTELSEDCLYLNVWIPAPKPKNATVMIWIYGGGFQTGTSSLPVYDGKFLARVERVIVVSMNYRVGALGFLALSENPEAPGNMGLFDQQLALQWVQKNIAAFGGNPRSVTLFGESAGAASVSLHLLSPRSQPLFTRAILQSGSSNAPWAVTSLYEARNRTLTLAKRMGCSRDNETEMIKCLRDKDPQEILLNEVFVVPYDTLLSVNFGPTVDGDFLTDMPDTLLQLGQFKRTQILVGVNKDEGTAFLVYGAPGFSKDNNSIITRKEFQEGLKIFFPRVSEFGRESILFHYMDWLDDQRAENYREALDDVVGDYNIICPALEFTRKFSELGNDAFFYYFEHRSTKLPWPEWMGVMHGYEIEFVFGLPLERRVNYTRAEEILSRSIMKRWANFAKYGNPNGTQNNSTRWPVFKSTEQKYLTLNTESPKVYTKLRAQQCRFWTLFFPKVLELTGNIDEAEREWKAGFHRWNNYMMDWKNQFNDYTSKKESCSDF
Experimental: as §1, §2, §3, §4

[3] = tested on: LPS-induced TNF-α production; parameters: method as in PMID 40732321; settings: read-out: IC50, inhibition of LPS-induced TNF-α production; cited from earlier work
[4] = tested on: LPS-stimulated TNFα production in PBMCs; assay: TNFα production in LPS-stimulated PBMCs (ELISA); type: cell-based, human
Experimental: The potential anti-inflammatory activity of compounds 1–4, 7–11, and 14–17 was also evaluated in vitro by the measurement of TNFα production in LPS-stimulated PBMCs. […] At lower concentrations that were not affecting cell viability, LPS-induced TNFα production was not changed. […] Compound 17 was active only at the highest tested concentration.
The effect of compounds on tumor necrosis factor alpha (TNFα) production in lipopolysaccharide (LPS)-stimulated peripheral blood mononuclear cells (PBMCs) was evaluated as described previously. […]
(§5) For cell viability evaluation, CellTiter-Glo reagent was used (Promega, Radoboj, Croatia) according to the manufacturer’s instructions. […] TNFα concentration in supernatants was measured by ELISA using antibodies and recombinant human TNFα protein (standard) from R&D Systems. […] Finally, after the plates were incubated with streptavidin HRP (Invitrogen, Thermo Fisher Scientific, Waltham, MA, USA), chemiluminescence ELISA Substrate (Roche, Zagreb, Croatia) was added to the wells and luminescence was measured using EnVision 2105 multilabel reader (Revvity, Waltham, MA, USA). Concentrations of TNFα in the supernatants were calculated using measured luminescence by interpolation from standard curves. […]

[5] = tested on: PBMCs; assay: Cell viability of PBMCs (CellTiter-Glo); type: cell-based; settings: LPS-stimulated PBMCs, 24 h
Experimental: The effect of compounds on tumor necrosis factor alpha (TNFα) production in lipopolysaccharide (LPS)-stimulated peripheral blood mononuclear cells (PBMCs) was evaluated as described previously. In short, PBMCs were isolated from buffy coats obtained from healthy adult volunteers and resuspended in RPMI1640 medium (Capricorn Scientific, Ebsdorfergrundu, Germany) supplemented with 10% heat-inactivated FBS (Biowest, Nuailléu, France), 1% GlutaMAX (Gibco, St. Louis, MO, USA), and 1% Antibiotic-Antimycotic (Gibco, St. Louis, MO, USA). PBMCs were seeded as 2 × 10^5 per well of a 96-well plate. […]
as §5

[6] = tested on: BChE; parameters: method as in PMID 40732321; settings: cited from earlier work
[7] = relative IC50 from nonlinear regression, tested 0.01–250 μM, read-out: BChE IC50

| Structure (SMILES) | inhibition at 50 µM [1] [%] | IC50 [1] [µM] | inhibition at 25 µM ([2]; read-out: BChE Inhibition (%)) [%] | IC50 [2, 7] [µM] | also measured |
| --- | --- | --- | --- | --- | --- |
| Cc1ccc(Cn2n[n+](Cc3ccc(C)cc3)c3ccc4sccc4c32)cc1 [Compound 9, 1.3-bis(4-methylbenzyl)-1H-thieno[3′,2′:3.4]benzo[1.2-d][1.2,3]triazol-3-ium bromide] | 78.7 ± 0.6 | 5.7 | 76.6 ± 0.4 | 3.5 |  |
| CC=Cn1n[n+](Cc2ccccc2)c2ccc3sccc3c21 [Compound 14, 3-benzyl-1-(prop-1-en-1-yl)-1H-thieno[3′,2′:3.4]benzo[1.2-d][1.2,3]triazol-3-ium bromide] |  | 4.3 | 80.4 ± 2.9 |  | inhibition at 100 µM [1]: 84.2 ± 0.5%; IC50 [2]: 1 µM |
| Cc1ccc(C[n+]2nn(Cc3cccc(F)c3)c3c4ccsc4ccc32)cc1 [F] |  |  |  |  | IC50 [3]: 0.66 µM |
| Cc1cccc(Cn2n[n+](Cc3ccc(I)cc3)c3ccc4sccc4c32)c1 [Compound 3, 3-(4-iodobenzyl)-1-(3-methylbenzyl)-1H-thieno[3′,2′:3.4]benzo[1.2-d][1.2,3]triazol-3-ium bromide] | 76.7 ± 0.5 | 5.9 |  | 0.7 | inhibition at 50 µM ([2]; read-out: BChE Inhibition (%)): 84.9 ± 3.6% |
| Cc1cccc(Cn2n[n+](Cc3ccccc3)c3ccc4sccc4c32)c1 [Compound 1, 3-benzyl-1-(3-methylbenzyl)-1H-thieno[3′,2′:3.4]benzo[1.2-d][1.2,3]triazol-3-ium bromide] | 78.6 ± 0.5 | 6.3 | 83.9 ± 0.2 | 0.4 |  |
| CC=Cn1n[n+](Cc2ccc(C)cc2)c2ccc3sccc3c21 [Compound 15, 3-(4-methylbenzyl)-1-(prop-1-en-1-yl)-1H-thieno[3′,2′:3.4]benzo[1.2-d][1.2,3]triazol-3-ium] |  | 14.4 |  | 0.9 | inhibition at 250 µM [1]: 82.3 ± 0.8%; inhibition at 50 µM ([2]; read-out: BChE Inhibition (%)): 84 ± 0.7% |
| CC=Cn1n[n+](Cc2ccc([N+](=O)[O-])cc2)c2ccc3sccc3c21 [Compound 17, 3-(4-nitrobenzyl)-1-(prop-1-en-1-yl)-1H-thieno[3′,2′:3,4]benzo[1,2-d][1–3]triazol-3-ium] |  | 63.8 |  | 11.4 | effect on LPS-stimulated TNFα production ([4]; PBMCs, starting concentration 100 µM, three-fold dilutions): slightly inhibited LPS-stimulated TNFα production; classification as AChE inhibitor ([1]; in words): weak AChE inhibitor; inhibition at 100 µM [1]: 62.6 ± 5.3%; effect on cell viability [5]: no effect on cell viability; inhibition at 100 µM ([2]; read-out: BChE Inhibition (%)): 85.5 ± 0.5% |
| CC=Cn1n[n+](Cc2ccc(Cl)cc2)c2ccc3sccc3c21 [Compound 16, 3-(4-chlorobenzyl)-1-(prop-1-en-1-yl)-1H-thieno[3′,2′:3,4]benzo[1,2-d][1–3]triazol-3-ium] |  | 5.4 |  | 2.3 | inhibition at 250 µM [1]: 82.6 ± 1.1%; inhibition at 100 µM ([2]; read-out: BChE Inhibition (%)): 84.8 ± 0.8% |
| Cc1ccc(Cn2n[n+](Cc3ccccc3)c3ccc4sccc4c32)cc1 [Compound 8, 3-benzyl-1-(4-methylbenzyl)-1H-thieno[3′,2′:3.4]benzo[1.2-d][1.2,3]triazol-3-ium bromide] | 80.7 ± 2.3 | 2.6 |  | 0.4 | inhibition at 10 µM ([2]; read-out: BChE Inhibition (%)): 83.6 ± 1% |
| Cc1ccc(Cn2n[n+](Cc3ccc(Cl)cc3)c3ccc4sccc4c32)cc1 [Compound 10, 3-(4-chlorobenzyl)-1-(4-methylbenzyl)-1H-thieno[3′,2′:3.4]benzo[1.2-d][1.2,3]triazol-3-ium bromide] |  | 6.5 | 79.9 ± 1.1 | 1.5 | inhibition at 100 µM [1]: 81.9 ± 0.6% |
| Cc1ccc(C[n+]2nn(Cc3cccc(C)c3)c3c4ccsc4ccc32)cc1 [Compound 2, 1-(3-methylbenzyl)-3-(4-methylbenzyl)-1H-thieno[3′,2′:3.4]benzo[1.2-d][1.2,3]triazol-3-ium bromide] | 82.1 ± 4.2 | 4.1 |  | 0.3 | inhibition at 2.5 µM ([2]; read-out: BChE Inhibition (%)): 77.6 ± 0.3% |
| COc1cccc(Cn2n[n+](Cc3ccc(Cl)cc3)c3ccc4sccc4c32)c1 [Compound 7, 3-(4-chlorobenzyl)-1-(3-methoxybenzyl)-1H-thieno[3′,2′:3.4]benzo[1.2-d][1.2,3]triazol-3-ium bromide] |  | 11.8 |  | 1 | inhibition at 100 µM [1]: 79.4 ± 4.9%; inhibition at 10 µM ([2]; read-out: BChE Inhibition (%)): 78.2 ± 0.4% |
| Clc1cccc(Cn2n[n+](Cc3ccc(I)cc3)c3ccc4sccc4c32)c1 [Compound 4, 1-(3-chlorobenzyl)-3-(4-iodobenzyl)-1H-thieno[3′,2′:3.4]benzo[1.2-d][1.2,3]triazol-3-ium bromide] | 74.6 ± 5 | 14.2 | 83.2 ± 0.9 | 0.8 |  |
| C[C@@H]1C[C@H]2[C@@H]3CCC4=CC(=O)C=C[C@]4(C)[C@@]3(F)[C@@H](O)C[C@]2(C)[C@@]1(O)C(=O)CO [dexamethasone, reference compound] |  |  |  |  | IC50 ([4]; Homo sapiens, PBMC, PBMCs from two donors, read-out: IC50, inhibition of LPS-stimulated TNFα production): 0.0035 µM |
| Cc1ccc(Cn2n[n+](Cc3ccc([N+](=O)[O-])cc3)c3ccc4sccc4c32)cc1 [Compound 11, 1-(4-methylbenzyl)-3-(4-nitrobenzyl)-1H-thieno[3′,2′:3.4]benzo[1.2-d][1.2,3]triazol-3-ium bromide] | 83.6 ± 2.1 | 3.2 | 81.1 ± 1.7 | 2.7 |  |
| C=CCn1n[n+](Cc2ccccc2)c2ccc3sccc3c21 [E] |  |  |  |  | IC50 [6]: 0.098 µM |
